Test results taken from patent US20060024699A1, “Method for evaluating a substance capable of effecting on endoplasmic reticulum stress-and/or amyloid beta-induced apoptosis” (priority 2004, published 2006).

Key:
Assay type in all cases: cell-based, human
pro-caspase-4 = test: Cleavage of pro-caspase-4 in SK-N-SH cells treated with apoptosis inducers (Western blotting); settings: tunicamycin 1 μg/ml, thapsigargin 0.5 μM, etoposide 100 μM for 16 or 24 hours, staurosporine 0.1 μM for 8 hours
Protocol: SK-N-SH cells were treated with various kinds of apoptosis inducers such as tunicamycin (manufactured by SIGMA), thapsigargin (manufactured by SIGMA), etoposide (manufactured by SIGMA), staurosporine (manufactured by SIGMA), UV and the like, to evaluate change in caspase-4. Specifically, SK-N-SH cells were treated either with exposure to an endoplasmic reticulum stress inducer, tunicamycin (1 μg/ml) or thapsigargin (0.5 μM), exposure to a non-endoplasmic reticulum stress inducer, etoposide (100 μM) or staurosporine (0.1 μM), or irradiated with 150 J/m2 UV, in α-MEM (manufactured by Invitrogen) containing 10% by weight of fetal bovine serum, at 37° C. under 5% by volume of CO2. Here, the exposures to tunicamycin, thapsigargin and etoposide were 16 or 24 hours, exposure to staurosporine was 8 hours, and UV irradiation was 8 hours.
(§1) Thereafter, the cells obtained were washed with phosphate buffered saline, and then harvested. The resulting cells were lysed in TNE buffer (composition: 10 mM Tris-HCl, pH 7.8, 1 mM EDTA, 150 mM NaCl, 1 mM phenylmethylsulphonyl fluoride) containing 0.5% by weight of NP-40 (trade name: Nonidet P-40), to give a cell extract. Equal amount of a cell extract (corresponding to 15 μg of protein) was subjected to 12% by weight SDS-PAGE. After the SDS-PAGE, proteins on the gel were transferred to a PVDF membrane (manufactured by Millipore). The membrane was blocked with 5% by weight of bovine serum albumin (BSA). The resulting membrane was incubated with a primary antibody (anti-caspase-4 antibody, anti-caspase-3 antibody, anti-caspase-7 antibody or anti-β-actin antibody), and thereafter incubated with a horseradish peroxidase (HRP)-conjugated secondary antibody. Thereafter, caspase-4, caspase-3, caspase-7 or β-actin was detected with trade name: ECL detection system (manufactured by Amersham-Pharmacia).

SK-N-SH cell = test: Nuclear morphological changes (Hoechst33342) after tunicamycin in vector-transfected SK-N-SH cells; settings: tunicamycin 1 μg/ml for 30 hours
Protocol: (§2) SK-N-SH cells were stably transfected with pCAGGS-hBcl-2 (Iwahashi, H. et al., Nature, 390, 413-417 (1997), all teachings of which are incorporated herein by reference) by a conventional method. The resulting cells were then cultured in αMEM (manufactured by Invitrogen) containing 10% by weight of fetal bovine serum, at 37° C. under 5% by volume of CO2 to overexpress Bcl-2. Similarly, HeLa cells were stably transfected with pCAGGS-hBcl-2. The resulting cells were then cultured in DMEM (manufactured by Invitrogen) containing 10% by weight of fetal bovine serum, at 37° C. under 5% by volume of CO2 for 48 hours to overexpress Bcl-2. Here, SK-N-SH cells and HeLa cells were stably transfected with trade name: pCAGGS (Hitoshi Niwa et al., Gene, 108, 193-200 (1991), all teachings of which are incorporated herein by reference) as controls, in the same manner as described above, respectively.
(§3) In addition, each of the transfectants was treated with tunicamycin (1 μg/ml) for 30 hours, stained with Hoechst33342, and observed by fluorescence microscopy.

HeLa cell = test: Nuclear morphological changes (Hoechst33342) after tunicamycin in vector-transfected HeLa cells; settings: tunicamycin 1 μg/ml for 30 hours
Protocol: as §2, §3

SK-N-SH cells = test: Thapsigargin-induced cell death assessed by morphological changes in SK-N-SH cells; settings: untransfected SK-N-SH cells; 0.5 μM thapsigargin for 40 hours
Protocol: In the same manner as described above, cellular morphological changes of SK-N-SH cells treated with various apoptosis inducers were evaluated by phase contrast microscopy. SK-N-SH cells treated in the same manner were stained with 10 μM Hoechst 33342. Nuclear morphological changes of stained cells were evaluated by fluorescence microscopy. Cell death was detected by using as an index cellular morphological changes and nuclear morphological changes. At least 500 cells were counted. The data was expressed as the mean ±SEM from three independent experiments and P values were calculated by Student's t-test.
SK-N-SH cell was transfected at 50% of confluence with 1.0 μg of the siRNA in 24-well plastic plates (manufactured by Nunc) containing αMEM (manufactured by Invitrogen) containing 10% by weight of fetal bovine serum, at 37° C. under 5% by volume of CO2, using trade name: Oligofectamine (manufactured by Invitrogen) according to the manufacturer's protocol. Transfected SK-N-SH cells were incubated at 37° C. for 60 hours without changing the medium.
In addition, SK-N-SH cells after the culturing were incubated in αMEM (manufactured by Invitrogen) containing 10% by weight of fetal bovine serum at 37° C. under 5% by volume of CO2, with or without 0.5 μM thapsigargin for 40 hours. […] Caspase-4 or β-actin was then detected with an ECL detection system (manufactured by Amersham-Pharmacia). […]

caspase-4 = test: Cleavage of caspase-4 in SK-N-SH cells treated with amyloid-β peptides (Western blotting); settings: 25 μM Aβ25-35, 5 μM Aβ1-40, 25 μM Aβ35-25, 5 M Aβ40-1
Protocol: as §1, with “Amersham-Pharmacia). […]” for “Amersham-Pharmacia).”
SK-N-SH cells were incubated in α-MEM (manufactured by Invitrogen) containing 10% by weight of fetal bovine serum, at 37° C. under 5% by volume of CO2, with 25 μM Aβ25-35, 5 μM Aβ1-40, 25 μM Aβ35-25, or 5 M Aβ40-1. Caspase-4, caspase-7 or β-actin in the cell extract was then detected in the same manner as described above.

Row | Compound | cleavage of pro-caspase-4 (pro-caspase-4) | cleavage of caspase-4 (caspase-4) | also measured
1 | tunicamycin | induced the cleavage of pro-caspase-4 | – | apoptotic nuclear morphological changes (SK-N-SH cell): apoptotic nuclear morphological changes were induced; apoptotic nuclear morphological changes (HeLa cell): apoptotic nuclear morphological changes were induced
2 | CN[C@@H]1C[C@H]2O[C@@](C)([C@@H]1OC)n1c3ccccc3c3c4c(c5c6ccccc6n2c5c31)C(=O)NC4 [staurosporine] | not cleaved | – | –
3 | C/C=C(/C)C(=O)O[C@H]1C(C)=C2[C@H]([C@@H]1OC(=O)CCCCCCC)[C@@](C)(OC(C)=O)C[C@H](OC(=O)CCC)[C@@]1(O)[C@H]2OC(=O)[C@@]1(C)O [thapsigargin] | induced the cleavage of pro-caspase-4 | – | cells resulting in death (SK-N-SH cells): about 60%
4 | Aβ1-40: amyloid-β peptide 1-40 | – | cleavage of caspase-4 was observed | –
5 | Aβ25-35: partial peptide of amyloid-β (GSNKGAIIGLM; Amyloid-beta protein 40; UniProt P05067 696-706, looked up, fragment) | – | cleavage of caspase-4 was observed | –
6 | COc1cc([C@@H]2c3cc4c(cc3[C@@H](O[C@@H]3O[C@@H]5CO[C@@H](C)O[C@H]5[C@H](O)[C@H]3O)[C@H]3COC(=O)[C@H]23)OCO4)cc(OC)c1O [etoposide] | not cleaved | – | –
